For assay [1], the system named is DRG neurons of type-1 diabetes peripheral neuropathy model mice. Put plainly: Axon growth of DRG neuron cells taken after administration, type-1 mice. Type of assay: in vivo, C57BL/6J mice. Here is the method:
Type-1 diabetes mice: male 8-week-old C57BL/6J mice were purchased from Beijing Vital River Laboratory Animal Technology Co., Ltd. One week after adaptive feeding, STZ (150 mg/kg) was injected intraperitoneally, and one week later, tail vein blood collection was carried out for blood sugar detection, and the mice with random blood sugar greater than 16 mmol/L were selected. Six weeks after STZ injection, the mice were divided into a control group (non-diabetic mice), a model group (DPN mice) and a S26 administration group (46.8 mg/kg/day) respectively according to body weight and blood sugar, and administrated intragastrically for four weeks continuously. After administration, a fresh DRG neuron of a mouse was extracted to digest into a single-cell suspension and then inoculated into a culture plate for adherent culture overnight. A β-tubulin III (Sigma) protein of the DRG neuron cells was labeled by an immunofluorescence staining method. The protein was imaged by a fluorescence microscope (Leica), and a total axon length of a single DRG neuron cell was tracked by a Neuro J plug-in in Image J software.

Assay [2] has as its system diabetic foot ulcer rat model (STZ-induced diabetic rat). Put plainly: Foot ulcer wound area of diabetic foot ulcer model rat. Type of assay: in vivo, Sprague Dawley rats. To be noted: for Area of foot ulcer wound: DFU rats, S26 46.8 mg/kg/day intragastric, Mean ± SD, n = 6. The procedure:
Diabetic foot ulcer (DFU) was the most common manifestation of diabetic foot, and was also a main cause of amputation of a diabetic patient. In this experiment, a certain area of wound was created on a foot back of the diabetic rat at one time to form a diabetic foot ulcer model, and then the compound S26 was administrated for treatment. The influence of the vinpocetine derivative S26 on the healing of the diabetic foot ulcer was evaluated by taking a photo of the wound and quantifying an area of the wound. […] Four weeks after STZ injection, an inhalation anesthesia machine was used to carry out isoflurane inhalation to induce anesthesia, and a complete round skin wound was created on a rear foot back of the diabetic rat through a disposable 5 mm skin biopsy punch and a Westcott scissor. After the establishment of the diabetic foot ulcer rat model, the rats were divided into a control group (non-diabetic rats), a model group (DFU rats) and a S26 administration group (46.8 mg/kg/day) respectively according to blood sugar and body weight, and administrated intragastrically for four weeks continuously. The foot ulcer wound of each rat was observed on day 0, day 3, day 7, day 14, day 21 and day 28 after administration, and photographed with a camera, and then the wound area was quantified by Image J software through scale conversion.

Molecules are shown by their SMILES.

Take `CC[C@@]12C=C(C(=O)NCC(=O)OCCOCCOCCOCCO)n3c4c(c5ccccc53)CCN(CCC1)[C@H]42` [Compound S26]: the Total axon length in assay [1] (Type-1 mice, DRG neurons extracted after four weeks of S26 46.8 mg/kg/day intragastric, Mean (SD in the cell below), n = 6) was 6374.12 pixel. Moreover, in assay [1] (type-1 diabetes peripheral neuropathy model mice), the “Axon growth conditions of DRG neurons (in words, FIG. 1)” value is “obviously improve”. Moreover, the “Area of foot ulcer wound” value is reported as 25.02 ± 2.85 mm^2 in assay [2] (day 0 of administration); 22.57 ± 2.76 mm^2 in assay [2] (day 3 of administration); 11.83 ± 3.73^# mm^2 in assay [2] (day 7 of administration); 10.50 ± 2.01^## mm^2 in assay [2] (day 14 of administration); 8.78 ± 1.35^## mm^2 in assay [2] (day 21 of administration); 6.02 ± 1.67^# mm^2 in assay [2] (day 28 of administration). Further, in assay [2] (diabetic foot rat), the “Area of the foot ulcer wound (in words, FIG. 2)” value is recorded as “obviously reduce”.

Values taken from patent publication US12600724B2, “Indole alkaloid and preparation method and use thereof” (NANJING UNIVERSITY OF CHINESE MEDICINE, priority 2022, dated 2026).
